According to patent US10933063B2 (priority 2017, dated 2021):
pIC50: −log10 of the molar value. Where two headings read alike, the source gives them in different places.

Legend:
[1] = target: T1, BTK (Homo sapiens (Human), UniProt Q06187); details: read-out: BTK Inhibition
Procedure: (§1) Btk kinase activity was determined using a homogenous time resolved fluorescence (HTRF) methodology. Measurements were performed in a reaction volume of 15 μL using 384-well assay plates. Kinase enzyme, inhibitor, ATP and 1 μM peptide substrate were incubated in a reaction buffer compose of Hepes50 mM (pH7.0), NaN3 0.02%, BSA 0.01%, Orthocanadate 0.1 mM. […] For each compound, enzyme activity as measured at various concentrations of compound, Negative control reactions were performed in the absence of inhibitor in two replicates and eight no enzyme controls were used to determine baseline fluorescence levels.

[2] = target: T1, BTK; assay: biochemical
Procedure: as §1

T1 sequence (Q06187 whole entry, looked up, species assumed): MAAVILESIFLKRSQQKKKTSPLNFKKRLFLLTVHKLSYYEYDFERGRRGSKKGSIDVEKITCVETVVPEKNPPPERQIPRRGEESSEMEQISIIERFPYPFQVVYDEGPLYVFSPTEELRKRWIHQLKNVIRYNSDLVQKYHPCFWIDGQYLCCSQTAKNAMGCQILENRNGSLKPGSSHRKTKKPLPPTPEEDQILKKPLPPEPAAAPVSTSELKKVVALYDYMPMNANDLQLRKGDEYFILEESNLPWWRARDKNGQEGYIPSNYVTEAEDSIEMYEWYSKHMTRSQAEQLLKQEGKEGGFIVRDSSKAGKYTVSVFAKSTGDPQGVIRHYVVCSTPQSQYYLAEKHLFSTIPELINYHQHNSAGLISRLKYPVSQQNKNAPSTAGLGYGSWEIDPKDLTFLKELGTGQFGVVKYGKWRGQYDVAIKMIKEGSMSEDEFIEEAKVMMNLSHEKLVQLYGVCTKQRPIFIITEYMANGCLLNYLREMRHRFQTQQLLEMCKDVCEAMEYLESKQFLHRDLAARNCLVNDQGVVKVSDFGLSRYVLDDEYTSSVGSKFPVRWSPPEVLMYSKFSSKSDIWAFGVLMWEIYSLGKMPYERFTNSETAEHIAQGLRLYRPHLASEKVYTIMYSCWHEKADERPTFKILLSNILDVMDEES

Row | Compound | pIC50 [1] | pIC50 [2]
1 | C=CC(=O)N1CCC[C@H]1c1nc(-c2ccc(C(=O)Nc3ccccn3)cc2)c2c(C3CC3)nccn12 [Example 190, (S)-4-(3-(1-acryloylpyrrolidin-2-yl)-8-cyclopropylimidazo [1,5-a]pyrazin-l-yl)-N-(pyridin-2-yl)benzamide] | < 5.00 | –
2 | CC#CC(=O)N1CCC[C@H]1c1nc(-c2ccc(Oc3ccccc3)nc2)c2cnccn12 [Example 15, (S)-1-(2-(1-(6-phenoxypyridin-3-yl)imidazo[1,5-a]pyrazin-3-yl)pyrrolidin-1-yl)but-2-yn-1-one] | < 5.00 | –
3 | C=CC(=O)N1CCC[C@H]1c1nc(-c2ccc(Oc3cccc(Cl)c3)cc2)c2cnccn12 [Example 28, (S)-1-(2-(1-(4-(3-chlorophenoxy)phenyl)imidazo[1,5-a]pyrazin-3-yl)pyrrolidin-1-yl)prop-2-en-1-one] | > 8.00 | –
4 | C=CC(=O)N1CCCC[C@H]1c1nc(-c2ccc(C(=O)Nc3ccccn3)cc2)c2c(C3CC3)nccn12 [Example 191, (S)-4-(3-(1-acryloylpiperidin-2-yl)-8-cyclopropylimidazo [1,5-a]pyrazin-1-yl)-N-(pyridin-2-yl)benzamide] | < 5.00 | –
5 | C=CC(=O)N1CCCC[C@H]1c1nc(-c2ccc(Oc3cccc(OC)c3)cc2)c2c(C)nccn12 [Example 48, (S)-1-(2-(1-(4-(3-methoxyphenoxy)phenyl)-8-methylimidazo[1,5-a]pyrazin-3-yl)piperidin-1-yl)prop-2-en-1-one] | > 8.00 | –
6 | C=CC(=O)N1CCC[C@H]1c1nc(-c2ccc(Oc3cccc(Cl)c3F)cc2)c2cnccn12 [Example 22, (S)-1-(2-(1-(4-(3-chloro-2-fluorophenoxy)phenyl)imidazo[1,5-a]pyrazin-3-yl)pyrrolidin-1-yl)prop-2-en-1-one] | > 8.00 | –
7 | C=CC(=O)N1CC[C@@H](c2nc(-c3ccc(Oc4cccc(OC)c4F)cc3)c3cncc(OCCOC)n23)C1 [Example 104, (R)-1-(3-(1-(4-(2-fluoro-3-methoxyphenoxy)phenyl)-5-(2-methoxyethoxy)imidazo[1,5-a]pyrazin-3-yl)pyrrolidin-1-yl)prop-2-en-1-one] | > 8.00 | –
8 | CC#CC(=O)N1CCCC[C@H]1c1nc(-c2ccc(C(=O)Nc3ccccn3)cc2)c2c(C(F)(F)F)nccn12 [Example 200, (S)-4-(3-(1-(but-2-ynoyl)piperidin-2-yl)-8-(trifluoromethyl)imidazo [1,5-a]pyrazin-1-yl)-N-(pyridin-2-yl)benzamide] | < 5.00 | –
9 | C=CC(=O)N1CCCC[C@H]1c1nc(-c2ccc(Oc3cccc(C)c3)cc2)c2c(C)nccn12 [Example 40, (S)-1-(2-(8-methyl-1-(4-(m-tolyloxy)phenyl)imidazo[1,5-a]pyrazin-3-yl)piperidin-1-yl)prop-2-en-1-one] | > 8.00 | –
10 | CC#CC(=O)N1CC[C@@H](c2nc(-c3ccc(Oc4cccc(OC)c4F)cc3)c3cncc(OC)n23)C1 [Example 86, (R)-1-(3-(1-(4-(2-fluoro-3-methoxyphenoxy)phenyl)-5-methoxyimidazo[1,5-a]pyrazin-3-yl)pyrrolidin-1-yl)but-2-yn-1-one] | > 8.00 | –
11 | C=CC(=O)N1CC[C@@H](c2nc(-c3ccc(Oc4cccc(OC)c4F)cc3)c3cncc(OCCC)n23)C1 [Example 95, (R)-1-(3-(1-(4-(2-fluoro-3-methoxyphenoxy)phenyl)-5-propoxyimidazo[1,5-a]pyrazin-3-yl)pyrrolidin-1-yl)prop-2-en-1-one] | > 8.00 | –
12 | CN(C)C(=O)N1CCCC[C@H]1c1nc(-c2ccc(C(=O)Nc3cc(C(F)(F)F)ccn3)cc2)c2c(C(F)(F)F)nccn12 [Example 216, (S)-N,N-dimethyl-2-(8-(trifluoromethyl)-1-(4-((4-(trifluoromethyl)pyridin-2-yl)carbamoyl)phenyl)imidazo[1,5-a]pyrazin-3-yl)piperidine-1-carboxamide] | < 5.00 | –
13 | CC#CC(=O)N1CCCC[C@H]1c1nc(-c2ccc(C(=O)Nc3ccccn3)cc2)c2c(C)nccn12 [Example 171, (S)-4-(3-(1-(but-2-ynoyl)piperidin-2-yl)-8-methylimidazo[1,5-a]pyrazin-1-yl)-N-(pyridin-2-yl)benzamide] | – | 7.00 to 8.00
14 | COc1cccc(Oc2ccc(-c3nc([C@@H]4CCN(C(=O)/C(C#N)=C/C(C)(C)C)C4)n4ccnc(C)c34)cc2)c1F [Example 88, (R,E)-2-(3-(1-(4-(2-fluoro-3-methoxyphenoxy)phenyl)-8-methylimidazo[1,5-a]pyrazin-3-yl)pyrrolidine-1-carbonyl)-4,4-dimethylpent-2-enenitrile] | – | 7.00 to 8.00
15 | C=CC(=O)N1CCCC[C@H]1c1nc(-c2ccc(Oc3cccc(OC)c3F)cc2)c2c(C)ncc(C)n12 [Example 80, (S)-1-(2-(1-(4-(2-fluoro-3-methoxyphenoxy)phenyl)-5,8-dimethylimidazo[1,5-a]pyrazin-3-yl)piperidin-1-yl)prop-2-en-1-one] | – | 7.00 to 8.00
16 | CC#CC(=O)N1CCC[C@H]1c1nc(-c2ccc(Oc3cccc(OC)c3F)cc2)c2cncc(C)n12 [Example 63, (S)-1-(2-(1-(4-(2-fluoro-3-methoxyphenoxy)phenyl)-5-methylimidazo[1,5-a]pyrazin-3-yl)pyrrolidin-1-yl)but-2-yn-1-one] | – | 6.00 to 7.00

Row | Compound | pIC50 [1] | pIC50 [2]
17 | CC#CC(=O)N1CCCC[C@H]1c1nc(-c2ccc(C(=O)Nc3ccccn3)cc2)c2c(C)ncc(C)n12 [Example 189, (S)-4-(3-(1-(but-2-ynoyl)piperidin-2-yl)-5,8-dimethylimidazo[1,5-a]pyrazin-1-yl)-N-(pyridin-2-yl)benzamide] | – | 6.00 to 7.00
18 | CC#CC(=O)N1CCC[C@@H](c2nc(-c3ccc(Oc4cccc(OC)c4F)cc3)c3c(C)ncc(C)n23)C1 [Example 77, (R)-1-(3-(1-(4-(2-fluoro-3-methoxyphenoxy)phenyl)-5,8-dimethylimidazo[1,5-a]pyrazin-3-yl)piperidin-1-yl)but-2-yn-1-one] | – | 6.00 to 7.00
19 | C=CC(=O)N1CCC[C@H]1c1nc(-c2ccc(Oc3cccc(OC)c3F)cc2)c2c(O)nccn12 [Example 36, (S)-1-(2-(1-(4-(2-fluoro-3-methoxyphenoxy)phenyl)-8-hydroxyimidazo[1,5-a]pyrazin-3-yl)pyrrolidin-1-yl)prop-2-en-1-one] | – | 7.00 to 8.00
20 | CC#CC(=O)N1CC[C@@H](c2nc(-c3ccc(Oc4cccc(OC)c4F)cc3)c3c(COC(C)=O)nccn23)C1 [Example 118, (R)-(3-(1-(but-2-ynoyl)pyrrolidin-3-yl)-1-(4-(2-fluoro-3-methoxyphenoxy)phenyl)imidazo[1,5-a]pyrazin-8-yl)methyl acetate] | – | 6.00 to 7.00
21 | C=CC(=O)N1CCC[C@H]1c1nc(-c2ccc(Oc3ccccc3OC)cc2)c2cnccn12 [Example 23, (S)-1-(2-(1-(4-(2-methoxyphenoxy)phenyl)imidazo[1,5-a]pyrazin-3-yl)pyrrolidin-1-yl)prop-2-en-1-one] | – | 7.00 to 8.00
22 | CC#CC(=O)N1CCCC[C@H]1c1nc(-c2ccc(Oc3cccc(F)c3)cc2)c2c(C)nccn12 [Example 56, (S)-1-(2-(1-(4-(3-fluorophenoxy)phenyl)-8-methylimidazo[1,5-a]pyrazin-3-yl)piperidin-1-yl)but-2-yn-1-one] | – | 7.00 to 8.00
23 | CC#CC(=O)N1CCCC[C@H]1c1nc(-c2ccc(Oc3cccc(Cl)c3F)cc2)c2c(C)nccn12 [Example 43, (S)-1-(2-(1-(4-(3-chloro-2-fluorophenoxy)phenyl)-8-methylimidazo[1,5-a]pyrazin-3-yl)piperidin-1-yl)but-2-yn-1-one] | – | 7.00 to 8.00
24 | C=CC(=O)N1CCCC[C@H]1c1nc(-c2ccc(COc3cccc(F)c3F)cc2)c2cnccn12 [Example 158, (S)-1-(2-(1-(4-((2,3-difluorophenoxy)methyl)phenyl)imidazo[1,5-a]pyrazin-3-yl)piperidin-1-yl)prop-2-en-1-one] | – | 6.00 to 7.00
25 | CC#CC(=O)N1CC[C@@H](c2nc(-c3ccc(Oc4cccc(OC)c4F)cc3)c3cncc(OC4CCOC4)n23)C1 (stereo partly drawn) [Example 99, 1-((3R)-3-(1-(4-(2-fluoro-3-methoxyphenoxy)phenyl)-5-((tetrahydrofuran-3-yl)oxy)imidazo[1,5-a]pyrazin-3-yl)pyrrolidin-1-yl)but-2-yn-1-one] | – | 7.00 to 8.00
26 | CC#CC(=O)N1CC[C@@H](c2nc(-c3ccc(Oc4cccc(OC)c4F)cc3)c3cncc(OC4CCC4)n23)C1 [Example 101, (R)-1-(3-(5-cyclobutoxy-1-(4-(2-fluoro-3-methoxyphenoxy)phenyl)imidazo[1,5-a]pyrazin-3-yl)pyrrolidin-1-yl)but-2-yn-1-one] | – | 7.00 to 8.00
27 | C=CC(=O)N1CCC[C@H]1c1nc(-c2ccc(C(=O)Nc3ccccn3)cc2)c2cncc(C)n12 [Example 172, (S)-4-(3-(1-aeryloylpyrrolidin-2-yl)-5-methylimidazo [1,5-a]pyrazin-l-yl)-N-(pyridin-2-yl)benzamide] | – | 7.00 to 8.00
28 | C=CC(=O)N1CC[C@@H](c2nc(-c3ccc(Oc4cccc(OC)c4F)cc3)c3cncc(C)n23)C1 [Example 72, (R)-1-(3-(1-(4-(2-fluoro-3-methoxyphenoxy)phenyl)-5-methylimidazo[1,5-a]pyrazin-3-yl)pyrrolidin-1-yl)prop-2-en-1-one] | – | 7.00 to 8.00
29 | C=CC(=O)N1CCC[C@H]1c1nc(-c2ccc(Oc3ccccc3)c(Cl)c2)c2cnccn12 [Example 26, (S)-1-(2-(1-(3-chloro-4-phenoxyphenyl)imidazo[1,5-a]pyrazin-3-yl)pyrrolidin-1-yl)prop-2-en-1-one] | – | 7.00 to 8.00
30 | CC#CC(=O)N1CCCC[C@H]1c1nc(-c2ccc(COc3cccc(F)c3)cc2)c2c(C)nccn12 [Example 157, (S)-1-(2-(1-(4-((3-fluorophenoxy)methyl)phenyl)-8-methylimidazo[1,5-a]pyrazin-3-yl)piperidin-1-yl)but-2-yn-1-one] | – | 6.00 to 7.00
31 | CC#CC(=O)N1CCCC[C@H]1c1nc(-c2ccc(Oc3cccc(OC)c3)cc2)c2c(C)nccn12 [Example 49, (S)-1-(2-(1-(4-(3-methoxyphenoxy)phenyl)-8-methylimidazo[1,5-a]pyrazin-3-yl)piperidin-1-yl)but-2-yn-1-one] | – | 7.00 to 8.00
32 | CC#CC(=O)N1CCC[C@H]1c1nc(-c2ccc(Oc3ccccc3OC)cc2)c2cnccn12 [Example 24, (S)-1-(2-(1-(4-(2-methoxyphenoxy)phenyl)imidazo[1,5-a]pyrazin-3-yl)pyrrolidin-1-yl)but-2-yn-1-one] | – | 5.00 to 6.00
